Read-outs that look alike come from different tables or passages of the source. One block for each compound: values may come before it.
Tests used:
[1] = Shell stability on exposure to aqueous fill composition (half-shell integrity test, H.S.I.T.); conditions: for content in fill composition for an HSIT rating of at least 3: PVP and water fill, lipophilic fill-grade BANNER SGC
Procedure: A study was conducted to determine whether or not complexation of a drug to the SAE-CD alters the ability of the SAE-CD to stabilize the capsule shell against dissolution, erosion, swelling or degradation caused by water in the fill composition enclosed within the capsule shell. Banner's hydrophilic, HFB, and lipophilic, LFB, air fill size 35 oval gelatin capsules were used in this study, which was performed as described below. […] The SAE-CD was slowly added to the water while it was stirring and on a hot plate. Agitation continued until all the SAE-CD dissolved. The SAE-CD was divided by weighing in equal amounts into nine vials (one for each drug). […] The amount of drug added produced a composition that contained a normal dose of drug in 1 gram. The vials were agitated and heated until a solution was obtained or the active was uniformly suspended. […]
Method A: Half-Shell integrity Test (H.S.I.T.)
In a closed container, a portion of a capsule shell is exposed to an aqueous fill composition comprising a known amount of derivatized cyclodextrin, water and optionally one or more other excipients. Observation of changes, or lack thereof, on the exposed portion's size, appearance, shape, dissolution, erosion, degradation, hardness, and/or translucence are recorded periodically over time. A rating scale is used to quantify the overall performance of the capsule portion during the test.

[2] = as above; assay type: physicochemical; conditions: for content in fill composition for an HSIT rating of at least 3: PVP and water fill, hydrophilic fill-grade BANNER SGC
Source text: Agitation continued until all the SAE-CD dissolved.

[3] = as above; assay type: physicochemical; conditions: for content in fill composition for an HSIT rating of at least 3: PVP and water fill, lipophilic fill-grade CARDINAL SGC
Procedure: (§1) The same tests were performed on gelatin capsules obtained from CARDINAL HEALTH.

[4] = as above; assay type: physicochemical
Procedure: as §1
It has been discovered that PEG has a beneficial effect upon the shell-stabilizing property of an aqueous fill composition comprising SAE-CD. FIG. 6a depicts a ternary graph correlating the concentration of SAE-CD, water and PEG in a fill composition to the H.S.I.T. rating of a soft shell capsule exposed to the fill composition. Aqueous fill solutions comprising differing amounts of PEG, SAE-CD and water were prepared. The stability tests were conducted as described below. The HFC soft gelatin capsules described herein were used. For a composition comprising 40% wt. SBE-CD, 40% wt. water and 20% wt. PEG, the shell was stable for greater than 5 days. For a composition comprising 35% wt. SBE-CD, 35% wt. water and 30% wt. PEG, the shell was stable for greater than 5 days. For a composition comprising 18% wt. SBE-CD, 42% wt. water and 40% wt. PEG, the shell was stable for greater than 5 days. Under each of the conditions tested, the control sample excluded SAE-CD, i.e., containing only water and PEG at the indicated concentration, and failed within 24 hours. About the same results were obtained for the HFB (FIG. 6b), LFB (FIG. 7a) and LFC (FIG. 7b) soft gelatin capsules. Increasing the SAE-CD concentration to values higher than those indicated further increases the shelf-life of the shell or provides an HSIT rating of at least 4. Stabilized aqueous fill composition-containing capsule formulations can be achieved with each capsule if the following fill compositions are used.

[5] = as above; assay type: physicochemical; conditions: SAE-CD, PVP and water fill; hydrophilic fill-grade CARDINAL SGC
[6] = 40% wt. cyclodextrin derivative in water, LFB
[7] = 50% wt. cyclodextrin derivative in water, LFB
[8] = 55% wt. cyclodextrin derivative in water, LFB
[9] = 60% wt. cyclodextrin derivative in water, LFB
[10] = 40% wt. cyclodextrin derivative in water, HFB
[11] = 50% wt. cyclodextrin derivative in water, HFB
[12] = 55% wt. cyclodextrin derivative in water, HFB
[13] = 60% wt. cyclodextrin derivative in water, HFB
[14] = 40% wt. cyclodextrin derivative in water, LFC
[15] = 50% wt. cyclodextrin derivative in water, LFC
[16] = 55% wt. cyclodextrin derivative in water, LFC
[17] = 60% wt. cyclodextrin derivative in water, LFC
[18] = 40% wt. cyclodextrin derivative in water, HFC
[19] = 50% wt. cyclodextrin derivative in water, HFC
[20] = 55% wt. cyclodextrin derivative in water, HFC
[21] = 60% wt. cyclodextrin derivative in water, HFC

content in fill composition for a stabilized capsule formulation [1]: ≧18%
Increase in shell size [1, 6]: 2.5× × original
Observations [1, 6]: shape intact
Time for failure [1, 6]: 3 days
Increase in shell size [1, 7]: 2.5 × original
Observations [1, 7]: Deformed
Time for failure [1, 7]: 7 days
Increase in shell size [1, 8]: 2 × original
Observations [1, 8]: Deformed
Time for failure [1, 8]: 10 days
Increase in shell size [1, 9]: no change in length
Observations [1, 9]: Slight
Time for failure [1, 9]: ≧21 days
content in fill composition for a stabilized capsule formulation [2]: ≧12%
Increase in shell size [2, 10]: 2× × original
Observations [2, 10]: shape intact
Time for failure [2, 10]: 3 days
Increase in shell size [2, 11]: 2.5 × original
Observations [2, 11]: Slightly
Time for failure [2, 11]: 16 days
Increase in shell size [2, 12]: 2 × original
Observations [2, 12]: Deformed
Time for failure [2, 12]: 10 days
Increase in shell size [2, 13]: no change
Observations [2, 13]: No change
Time for failure [2, 13]: ≧21 days
content in fill composition for a stabilized capsule formulation [3]: ≧18%
Increase in shell size [3, 14]: >3 × original
Observations [3, 14]: shape intact
Time for failure [3, 14]: 4 days
Increase in shell size [3, 15]: 2 × original
Observations [3, 15]: deformed
Time for failure [3, 15]: 7 days
Increase in shell size [3, 16]: Slightly enlarged
Observations [3, 16]: No deformities
Time for failure [3, 16]: ≧14 days
Increase in shell size [3, 17]: no change
Observations [3, 17]: no change
Time for failure [3, 17]: >21 days
content in fill composition for a stabilized capsule formulation [4]: ≧18%
time the shell was stable ([4]; 18% wt. SBE-CD, 42% wt. water and 40% wt. PEG, HFC): greater than 5 days
time the shell was stable ([4]; 35% wt. SBE-CD, 35% wt. water and 30% wt. PEG, HFC): greater than 5 days
time the shell was stable ([4]; 40% wt. SBE-CD, 40% wt. water and 20% wt. PEG, HFC): greater than 5 days
Increase in shell size [4, 18]: 3 × original
Observations [4, 18]: deformed
Time for failure [4, 18]: 4 days
Increase in shell size [4, 19]: 2 × original
Observations [4, 19]: shape intact
Time for failure [4, 19]: 7 days
Increase in shell size [4, 20]: No change
Observations [4, 20]: No deformities
Time for failure [4, 20]: ≧14 days
Increase in shell size [4, 21]: no change
Observations [4, 21]: no change
Time for failure [4, 21]: >21 days
Compound: sulfobutyl ether cyclodextrin [SAE-CD]
content in fill composition for an HSIT rating of at least 3 ([1]; SAE-CD): ≧6%
content in fill composition for an HSIT rating of at least 3 ([2]; SAE-CD): ≧6%
content in fill composition for an HSIT rating of at least 3 ([3]; SAE-CD): ≧6%
content in fill composition for an HSIT rating of at least 3 [5]: ≧6%

Compound: O [Water]
content in fill composition for a stabilized capsule formulation ([1]; SAE-CD, PEG and water fill, LFB): ≦50%
content in fill composition for an HSIT rating of at least 3 ([1]; SAE-CD): ≦54%
content in fill composition for a stabilized capsule formulation ([2]; SAE-CD, PEG and water fill, HFB): ≦48%
content in fill composition for an HSIT rating of at least 3 ([2]; SAE-CD): ≦54%
content in fill composition for a stabilized capsule formulation ([3]; SAE-CD, PEG and water fill, LFC): ≦48%
content in fill composition for an HSIT rating of at least 3 ([3]; SAE-CD): ≦49%
content in fill composition for a stabilized capsule formulation ([4]; SAE-CD, PEG and water fill, HFC): ≦50%
content in fill composition for an HSIT rating of at least 3 [5]: ≦54%

Reference: patent US7829114B2, “Capsules containing aqueous fill compositions stabilized with derivatized cyclodextrin” (CyDex Pharmaceuticals, Inc., priority 2002, dated 2010)
